Experimental data taken from ChEMBL document CHEMBL1201862, “PubChem BioAssay data set” (2004).
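Each compound was tested at five concentrations against cells in 96-well plates for 48 hours. Here, GI50 denotes the concentration required for 50% inhibition of growth.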 Active and inactive are the calls of the source. Rule as the data show it: active = GI50 up to about 1.1 µM and inactive = higher.

Tests used:
Assay in all cases: NCI-60 cell line screen, 48 h
SNB-78 = test system: SNB-78
KM-20L2 = test system: KM-20L2
HOP-18 = test system: HOP-18
M14 = test system: M14
NCI-H460 = test system: NCI-H460
UACC-257 = test system: UACC-257
SK-MEL-28 = test system: SK-MEL-28
SK-OV-3 = test system: SK-OV-3
SW-620 = test system: SW-620
NCI-H23 = test system: NCI-H23
MOLT-4 = test system: MOLT-4
CCRF-CEM = test system: CCRF-CEM
TK-10 = test system: TK-10
RPMI-8226 = test system: RPMI-8226
HCT-116 = test system: HCT-116
SN12C = test system: SN12C
K562 = test system: K562
SF-295 = test system: SF-295
UO-31 = test system: UO-31
HOP-62 = test system: HOP-62
OVCAR-3 = test system: OVCAR-3
HT-29 = test system: HT-29
SK-MEL-2 = test system: SK-MEL-2
COLO 205 = test system: COLO 205
A549 = test system: A549
M19-MEL = test system: M19-MEL
OVCAR-8 = test system: OVCAR-8
Malme-3M = test system: Malme-3M
U-251 = test system: U-251
RXF 393 = test system: RXF 393
LOX IMVI = test system: LOX IMVI
DMS-273 = test system: DMS-273
IGROV-1 = test system: IGROV-1
EKVX = test system: EKVX
SK-MEL-5 = test system: SK-MEL-5
CAKI-1 = test system: CAKI-1
HCT-15 = test system: HCT-15
XF498 = test system: XF498
OVCAR-4 = test system: OVCAR-4
SNB-19 = test system: SNB-19
DMS-114 = test system: DMS-114
OVCAR-5 = test system: OVCAR-5
SNB-75 = test system: SNB-75
HL-60 = test system: HL-60
UACC-62 = test system: UACC-62
ACHN = test system: ACHN
RXF 631 = test system: RXF 631
SF-268 = test system: SF-268
KM12 = test system: KM12
NCI-H522 = test system: NCI-H522
SF-539 = test system: SF-539
HOP-92 = test system: HOP-92
NCI-H226 = test system: NCI-H226
A498 = test system: A498
786-0 = test system: 786-0
HCC 2998 = test system: HCC 2998
SR = test system: SR
LXFL 529 = test system: LXFL 529
DLD-1 = test system: DLD-1

SMILES: COc1cc(C2C(C(=O)O)=C(COC(C)=O)Oc3cc4c(cc32)OCO4)cc(OC)c1OC (stereo not drawn)
- GI50 (SNB-78): > 100 µM (inactive)
- GI50 (KM-20L2): > 100 µM (inactive)
- GI50 (HOP-18): > 100 µM (inactive)
- GI50 (M14): > 100 µM (inactive)
- GI50 (NCI-H460): > 100 µM (inactive)
- GI50 (UACC-257): > 100 µM (inactive)
- GI50 (SK-MEL-28): > 100 µM (inactive)
- GI50 (SK-OV-3): > 100 µM (inactive)
- GI50 (SW-620): > 100 µM (inactive)
- GI50 (NCI-H23): > 100 µM (inactive)
- GI50 (MOLT-4): > 100 µM (inactive)
- GI50 (CCRF-CEM): > 100 µM (inactive)
- GI50 (TK-10): > 100 µM (inactive)
- GI50 (RPMI-8226): > 100 µM (inactive)
- GI50 (HCT-116): > 100 µM (inactive)
- GI50 (SN12C): > 100 µM (inactive)
- GI50 (K562): > 100 µM (inactive)
- GI50 (SF-295): > 100 µM (inactive)
- GI50 (UO-31): > 100 µM (inactive)
- GI50 (HOP-62): > 100 µM (inactive)
- GI50 (OVCAR-3): > 100 µM (inactive)
- GI50 (HT-29): > 100 µM (inactive)
- GI50 (SK-MEL-2): > 100 µM (inactive)
- GI50 (COLO 205): > 100 µM (inactive)
- GI50 (A549): > 100 µM (inactive)
- GI50 (M19-MEL): > 100 µM (inactive)
- GI50 (OVCAR-8): > 100 µM (inactive)
- GI50 (Malme-3M): > 100 µM (inactive)
- GI50 (U-251): > 100 µM (inactive)
- GI50 (RXF 393): > 100 µM (inactive)
- GI50 (LOX IMVI): > 100 µM (inactive)
- GI50 (DMS-273): > 100 µM (inactive)
- GI50 (IGROV-1): > 100 µM (inactive)
- GI50 (EKVX): > 100 µM (inactive)
- GI50 (SK-MEL-5): > 100 µM (inactive)
- GI50 (CAKI-1): > 100 µM (inactive)
- GI50 (HCT-15): > 100 µM
- GI50 (XF498): > 100 µM (inactive)
- GI50 (OVCAR-4): > 100 µM (inactive)
- GI50 (SNB-19): > 100 µM (inactive)
- GI50 (DMS-114): > 100 µM (inactive)
- GI50 (OVCAR-5): > 100 µM (inactive)
- GI50 (SNB-75): 41 µM (inactive)
- GI50 (HL-60): > 100 µM (inactive)
- GI50 (UACC-62): > 100 µM (inactive)
- GI50 (ACHN): > 100 µM (inactive)
- GI50 (RXF 631): > 100 µM (inactive)

SMILES: CC(=O)c1ccc(NC(=O)COC(=O)c2cccc3c(=O)c4ccccc4[nH]c23)cc1
- GI50 (SNB-78): 31.4 µM (inactive)
- GI50 (KM-20L2): > 100 µM (inactive)
- GI50 (HOP-18): > 100 µM (inactive)
- GI50 (M14): 31.4 µM (inactive)
- GI50 (NCI-H460): 22.6 µM (inactive)
- GI50 (UACC-257): 57.7 µM (inactive)
- GI50 (SK-MEL-28): 40.6 µM (inactive)
- GI50 (SK-OV-3): 67.8 µM (inactive)
- GI50 (SF-268): 20.5 µM (inactive)
- GI50 (SW-620): 52.8 µM (inactive)
- GI50 (NCI-H23): 18.6 µM (inactive)
- GI50 (KM12): 12.9 µM (inactive)
- GI50 (NCI-H522): 72.6 µM (inactive)
- GI50 (MOLT-4): > 100 µM (inactive)
- GI50 (CCRF-CEM): > 100 µM (inactive)
- GI50 (SF-539): 8.91 µM (inactive)
- GI50 (HOP-92): 25.9 µM (inactive)
- GI50 (TK-10): 21.7 µM (inactive)
- GI50 (HCT-116): 12.2 µM (inactive)
- GI50 (SN12C): 16.1 µM (inactive)
- GI50 (K562): > 100 µM (inactive)
- GI50 (SF-295): 15.8 µM (inactive)
- GI50 (NCI-H226): 19.4 µM (inactive)
- GI50 (UO-31): 96.2 µM (inactive)
- GI50 (HOP-62): 31.5 µM (inactive)
- GI50 (A498): 44 µM (inactive)
- GI50 (786-0): 37.8 µM (inactive)
- GI50 (OVCAR-3): 27.2 µM (inactive)
- GI50 (HT-29): 45.5 µM (inactive)
- GI50 (COLO 205): 33.6 µM (inactive)
- GI50 (A549): 45.4 µM (inactive)
- GI50 (M19-MEL): 25.5 µM (inactive)
- GI50 (OVCAR-8): 9.2 µM (inactive)
- GI50 (Malme-3M): 42.5 µM (inactive)
- GI50 (U-251): 15.5 µM (inactive)
- GI50 (HCC 2998): > 100 µM (inactive)
- GI50 (RXF 393): 18 µM (inactive)
- GI50 (LOX IMVI): 13.4 µM (inactive)
- GI50 (SR): > 100 µM (inactive)
- GI50 (IGROV-1): 37.4 µM (inactive)
- GI50 (LXFL 529): 21.9 µM (inactive)
- GI50 (EKVX): > 100 µM (inactive)
- GI50 (SK-MEL-5): 29.4 µM (inactive)
- GI50 (CAKI-1): > 100 µM (inactive)
- GI50 (XF498): 23.1 µM (inactive)
- GI50 (OVCAR-4): 6.79 µM (inactive)
- GI50 (SNB-19): 22.5 µM (inactive)
- GI50 (DMS-114): 34.8 µM (inactive)
- GI50 (SNB-75): 10.1 µM (inactive)
- GI50 (DLD-1): 54 µM (inactive)
- GI50 (HL-60): > 100 µM (inactive)
- GI50 (UACC-62): 24.9 µM (inactive)
- GI50 (ACHN): 27.8 µM (inactive)
- GI50 (RXF 631): 20.6 µM (inactive)

SMILES: O=[N+]([O-])C1C2C=CC(C2)[C@H]1c1ccccc1Cl (stereo partly drawn)
- GI50 (SNB-78): > 100 µM (inactive)
- GI50 (KM-20L2): > 100 µM (inactive)
- GI50 (HOP-18): > 100 µM (inactive)
- GI50 (M14): > 100 µM (inactive)
- GI50 (NCI-H460): > 100 µM (inactive)
- GI50 (UACC-257): 67 µM (inactive)
- GI50 (SK-MEL-28): > 68.7 µM (inactive)
- GI50 (SK-OV-3): > 31.6 µM (inactive)
- GI50 (SF-268): > 100 µM (inactive)
- GI50 (SW-620): > 100 µM (inactive)
- GI50 (NCI-H23): 63.4 µM (inactive)
- GI50 (KM12): > 100 µM (inactive)
- GI50 (NCI-H522): 23.8 µM (inactive)
- GI50 (MOLT-4): 57 µM (inactive)
- GI50 (CCRF-CEM): 87.5 µM (inactive)
- GI50 (SF-539): > 100 µM (inactive)
- GI50 (HOP-92): 24 µM (inactive)
- GI50 (TK-10): > 100 µM (inactive)
- GI50 (RPMI-8226): > 69.8 µM (inactive)
- GI50 (HCT-116): > 89.9 µM (inactive)
- GI50 (SN12C): > 100 µM (inactive)
- GI50 (K562): 59.4 µM (inactive)
- GI50 (SF-295): > 100 µM (inactive)
- GI50 (NCI-H226): 15.8 µM (inactive)
- GI50 (UO-31): > 54 µM (inactive)
- GI50 (HOP-62): > 10 µM (inactive)
- GI50 (A498): > 89.9 µM (inactive)
- GI50 (786-0): > 100 µM (inactive)
- GI50 (OVCAR-3): 22 µM (inactive)
- GI50 (HT-29): 99.8 µM (inactive)
- GI50 (SK-MEL-2): > 77.8 µM (inactive)
- GI50 (COLO 205): > 100 µM (inactive)
- GI50 (A549): > 84.5 µM (inactive)
- GI50 (OVCAR-8): > 100 µM (inactive)
- GI50 (Malme-3M): 99.1 µM (inactive)
- GI50 (U-251): > 87.9 µM (inactive)
- GI50 (HCC 2998): > 100 µM (inactive)
- GI50 (RXF 393): 45.8 µM (inactive)
- GI50 (LOX IMVI): > 100 µM (inactive)
- GI50 (SR): 47.9 µM (inactive)
- GI50 (DMS-273): > 100 µM (inactive)
- GI50 (IGROV-1): > 31.6 µM (inactive)
- GI50 (LXFL 529): 75 µM (inactive)
- GI50 (EKVX): > 100 µM (inactive)
- GI50 (SK-MEL-5): 53.5 µM (inactive)
- GI50 (CAKI-1): > 10 µM (inactive)
- GI50 (HCT-15): > 96.6 µM
- GI50 (XF498): > 77.1 µM (inactive)
- GI50 (OVCAR-4): > 10 µM (inactive)
- GI50 (SNB-19): > 100 µM (inactive)
- GI50 (OVCAR-5): 16.5 µM (inactive)
- GI50 (SNB-75): 20.5 µM (inactive)
- GI50 (DLD-1): 83.6 µM (inactive)
- GI50 (HL-60): 29.9 µM (inactive)
- GI50 (UACC-62): 27.5 µM (inactive)
- GI50 (ACHN): > 83.6 µM (inactive)
- GI50 (RXF 631): 76.2 µM (inactive)
